Values of other authors as cited in patent US20090214619A1, “IMPLANT FOR INTRAOCULAR DRUG DELIVERY” (THERAKINE LTD., priority 2004, published 2009).

B1: IL-4: pleiotropic cytokine produced by activated T cells, mast cells, and basophiles (protein, UniProt P05112 25-153, looked up)
Interleukin-4: HKCDITLQEIIKTLNSLTEQKTLCTELTVTDIFAASKNTTEKETFCRAATVLRQFYSHHEKDTRCLGATAQQFHRHKQLIRFLKRLDRNLWGLAGLNSCPVKEANQSTLENFLERLKTIMREKYSKCSS

Columns and labels:
[1] = tested on: degenerative diseases such as choroidal neovascularization, macular edema, macular degeneration, branch retinal vein occlusion; settings: patients with choroidal neovascularization
HSP induced uveitis = settings: rats with HSP induced uveitis; decreased from 68% without treatment

Molecule	effect on vision [1]	development of uveitis (HSP induced uveitis) [%]
Infliximab: chimeric Anti TNF Mab	improve vision	
B1		30.4
